Molecules are shown by their SMILES.

The results in this text go back to patent EP2776398B1, “SUBSTITUTED PYRAZOLYL-BASED UREA DERIVATIVES AS VANILLOID RECEPTOR LIGANDS” (Medifron DBT Inc., priority 2011, dated 2013).

In one test the target is T1, vanilloid receptor 1 (VR1/TRPV1 receptor) (Homo sapiens, UniProt Q8NER1).
T1 construct: expressed in transfected cells; host or cells: CHO K1 cells (ECACC), stably transfected
T1 sequence (Q8NER1 whole entry): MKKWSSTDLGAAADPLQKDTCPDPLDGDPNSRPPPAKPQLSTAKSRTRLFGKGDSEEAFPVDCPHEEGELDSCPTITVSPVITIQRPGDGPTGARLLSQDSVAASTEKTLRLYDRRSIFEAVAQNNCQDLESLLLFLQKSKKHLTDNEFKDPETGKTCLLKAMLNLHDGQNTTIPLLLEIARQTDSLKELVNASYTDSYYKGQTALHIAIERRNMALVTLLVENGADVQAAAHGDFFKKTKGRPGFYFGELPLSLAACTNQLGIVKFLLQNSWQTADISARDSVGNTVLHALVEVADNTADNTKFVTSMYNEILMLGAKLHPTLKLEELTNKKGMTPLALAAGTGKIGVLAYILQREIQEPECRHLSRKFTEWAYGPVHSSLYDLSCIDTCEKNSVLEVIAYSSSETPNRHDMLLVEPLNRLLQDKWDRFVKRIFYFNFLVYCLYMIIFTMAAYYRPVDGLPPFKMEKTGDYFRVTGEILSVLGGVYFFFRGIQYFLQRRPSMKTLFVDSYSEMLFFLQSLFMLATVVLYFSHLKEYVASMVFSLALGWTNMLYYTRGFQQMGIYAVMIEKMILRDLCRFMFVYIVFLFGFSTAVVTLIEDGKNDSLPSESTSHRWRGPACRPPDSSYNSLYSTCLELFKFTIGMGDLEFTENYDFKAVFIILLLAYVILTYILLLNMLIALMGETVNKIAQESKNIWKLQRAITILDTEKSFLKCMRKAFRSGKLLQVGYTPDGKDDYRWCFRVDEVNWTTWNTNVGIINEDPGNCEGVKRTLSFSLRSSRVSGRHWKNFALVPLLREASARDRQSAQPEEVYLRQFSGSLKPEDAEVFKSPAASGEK
Briefly: Functional testing on vanilloid receptor 1: FLIPR Ca2+ influx assay against capsaicin (Cap) in transfected CHO K1 cells (pharmacological method II). As to Ki: 100 nM capsaicin. The format is cell-based. Set-up: key to (f) Ki (human being) [nM] Cap: agonist classification: AG = agonist. As to conditions: @ 5µM; human VR1 in CHO K1 cells; capsaicin; relative to maximum inhibition with 10 µM capsazepine; read-out: inhibition (as a percentage), printed in column (f) Ki (human being) [nM] Cap.
Excerpt: […]
For `CC(C)(C)c1cc(CNC(=O)Nc2ccc(C(O)(CO)CO)cc2)n(-c2cccc(Cl)c2)n1` [A159, 1-[[5-tert-Butyl-2-(3-chlorophenyl)-2H-pyrazol-3-yl]-methyl]-3-[4-[1,2-dihydroxy-1-(hydroxymethyl)-ethyl]-phenyl]-urea], the inhibition at 5 µM stood at 24%.

Take `O=C(NCc1cc(C(F)(F)F)nn1-c1cccc(Cl)c1)Nc1ccc(C(CO)CO)c(F)c1` [A153, 1-[[2-(3-Chlorophenyl)-5-(trifluoromethyl)-2H-pyrazol-3-yl]-methyl]-3-[3-fluoro-4-[2-hydroxy-1-(hydroxymethyl)-ethyl]-phenyl]-urea]: the inhibition at 5 µM is 50%.

Staying with this test, now noted: human VR1 in CHO K1 cells; AG printed instead of a Ki.
As for `CC(C)(C)c1cc(CNC(=O)Nc2ccc(OCC(O)CO)c(F)c2)n(-c2cccc(Cl)c2)n1` (centres unmarked) [A24, 1-[[5-tert-Butyl-2-(3-chlorophenyl)-2H-pyrazol-3-yl]-methyl]-3-[4-(2,3-dihydroxy-propoxy)-3-fluoro-phenyl]-urea], the “(f) Ki (human being) [nM] Cap: agonist classification” value (from here on “(f) Ki (human being) [nM] Cap”) is listed as “AG”. Same read-out and setting: the result for `CC(C(=O)NCc1cc(C(C)(C)C)nn1-c1cccc(Cl)c1)c1ccc(C(O)CO)c(F)c1` (centres unmarked) [A145, N-[[5-tert-Butyl-2-(3-chlorophenyl)-2H-pyrazol-3-yl]-methyl]-2-[4-(1,2-dihydroxy-ethyl)-3-fluoro-phenyl]-propionamide] reads “AG”; that for `CC(C)(C)c1cc(CNC(=O)Nc2ccc(CCO)c(F)c2)n(-c2cccc(Cl)c2)n1` [A140, 1-[[5-tert-Butyl-2-(3-chlorophenyl)-2H-pyrazol-3-yl]-methyl]-3-[3-fluoro-4-(2-hydroxy-ethyl)-phenyl]-urea], “AG”.

Consider `CC(C(=O)NCc1cc(C(F)(F)F)nn1-c1cccc(C(F)(F)F)c1)c1ccc(CO)c(F)c1` (centres unmarked) [A48, 2-[3-Fluoro-4-(hydroxymethyl)-phenyl]-N-[[5-(trifluoromethyl)-2-[3-(trifluoromethyl)phenyl]-2H-pyrazol-3-yl]-methyl]-propionamide], for which the “(f) Ki (human being) [nM] Cap” value is on record as “AG”. Take `CC(C(=O)NCc1cc(C(C)(C)C)nn1-c1cccc(Cl)c1)c1ccc(CO)c(F)c1` (centres unmarked) [A32, N-[[5-tert-Butyl-2-(3-chlorophenyl)-2H-pyrazol-3-yl]-methyl]-2-[3-fluoro-4-(hydroxymethyl)-phenyl]-propionamide]: the “(f) Ki (human being) [nM] Cap” value is reported as “AG”.

The same test, now with this note: read-out: (f) Ki (human being) [nM] Cap.
Take `CC(O)c1ccc(C(C)C(=O)NCc2cc(C(F)(F)F)nn2-c2cccc(Cl)c2)cc1F` (centres unmarked) [A99, N-[[2-(3-Chlorophenyl)-5-(trifluoromethyl)-2H-pyrazol-3-yl]-methyl]-2-[3-fluoro-4-(1-hydroxy-ethyl)-phenyl]-propionamide]: the Ki was 6 nM. For `Cc1cc(-n2nc(C(F)(F)F)cc2CNC(=O)Nc2ccc(CO)c(F)c2)ccc1F` [A80, 1-[3-Fluoro-4-(hydroxymethyl)-phenyl]-3-[[2-(4-fluoro-3-methyl-phenyl)-5-(trifluoromethyl)-2H-pyrazol-3-yl]-methyl]-urea], the Ki was found to be 7 nM. Same read-out and setting: the same measure for `CC(C)(C)c1cc(CNC(=O)Nc2ccc(COCCO)c(F)c2)n(-c2cccc(Cl)c2)n1` [A129, 1-[[5-tert-Butyl-2-(3-chlorophenyl)-2H-pyrazol-3-yl]-methyl]-3-[3-fluoro-4-(2-hydroxy-ethoxy-methyl)-phenyl]-urea]: 43 nM; for `COc1ccc(-n2nc(C(F)(F)F)cc2CNC(=O)Nc2ccc(CO)c(F)c2)cc1` [A68, 1-[3-Fluoro-4-(hydroxymethyl)-phenyl]-3-[[2-(4-methoxyphenyl)-5-(trifluoromethyl)-2H-pyrazol-3-yl]-methyl]-urea]: 13 nM. The same measure, in the same setting: the same measure for `CC(C)c1cccc(-n2nc(C(F)(F)F)cc2CNC(=O)C(C)c2ccc(CCO)c(F)c2)c1` (centres unmarked) [A137, 2-[3-Fluoro-4-(2-hydroxy-ethyl)-phenyl]-N-[[2-(3-isopropyl-phenyl)-5-(trifluoromethyl)-2H-pyrazol-3-yl]-methyl]-propionamide]: 0.6 nM; for `CC(C(=O)NCc1cc(C(C)(C)C)nn1-c1cccc(F)c1)c1ccc(COCCO)c(F)c1` (centres unmarked) [A116, N-[[5-tert-Butyl-2-(3-fluorophenyl)-2H-pyrazol-3-yl]-methyl]-2-[3-fluoro-4-(2-hydroxy-ethoxy-methyl)-phenyl]-propionamide]: 18 nM. On to `CC(C)c1cccc(-n2nc(C(F)(F)F)cc2CNC(=O)Nc2ccc(CO)c(F)c2)c1` [A82, 1-[3-Fluoro-4-(hydroxymethyl)-phenyl]-3-[[2-(3-isopropyl-phenyl)-5-(trifluoromethyl)-2H-pyrazol-3-yl]-methyl]-urea], for which the Ki turned out to be 2 nM.

As for `COc1cc(C)cc(-n2nc(C(F)(F)F)cc2CNC(=O)Nc2ccc(CO)c(F)c2)c1` [A92, 1-[3-Fluoro-4-(hydroxymethyl)-phenyl]-3-[[2-(3-methoxy-5-methyl-phenyl)-5-(trifluoromethyl)-2H-pyrazol-3-yl]-methyl]-urea], the Ki came to 19 nM. For the compound `CC(C(=O)NCc1cc(C(F)(F)F)nn1-c1cccc(Cl)c1)c1ccc(COCCO)c(F)c1` (centres unmarked) [A118, N-[[2-(3-Chlorophenyl)-5-(trifluoromethyl)-2H-pyrazol-3-yl]-methyl]-2-[3-fluoro-4-(2-hydroxy-ethoxy-methyl)-phenyl]-propionamide], the Ki amounted to 27 nM.

Consider `COc1c(F)cc(C(C)C(=O)NCc2cc(C(C)(C)C)nn2-c2cccc(Cl)c2)cc1F` (centres unmarked) [A4, N-[[5-tert-Butyl-2-(3-chlorophenyl)-2H-pyrazol-3-yl]-methyl]-2-(3,5-difluoro-4-methoxy-phenyl)-propionamide], for which the Ki came out at 2 nM. As for `O=C(NCc1cc(C(F)(F)F)nn1-c1cccc(Cl)c1)Nc1ccc(CO)c(F)c1` [A59, 1-[[2-(3-Chlorophenyl)-5-(trifluoromethyl)-2H-pyrazol-3-yl]-methyl]-3-[3-fluoro-4-(hydroxymethyl)-phenyl]-urea], the Ki was determined as 7 nM. In the case of `COc1c(F)cc(NC(=O)NCc2cc(C(F)(F)F)nn2-c2cccc(Cl)c2)cc1F` [A8, 1-[[2-(3-Chlorophenyl)-5-(trifluoromethyl)-2H-pyrazol-3-yl]-methyl]-3-(3,5-difluoro-4-methoxy-phenyl)-urea], the Ki was 55 nM.

Turning to `Cc1ccc(-n2nc(C(F)(F)F)cc2CNC(=O)Nc2ccc(CO)c(F)c2)cc1` [A71, 1-[3-Fluoro-4-(hydroxymethyl)-phenyl]-3-[[2-(p-tolyl)-5-(trifluoromethyl)-2H-pyrazol-3-yl]-methyl]-urea], the Ki was found to be 42 nM. In the case of `CC(C(=O)NCc1cc(C(F)(F)F)nn1-c1ccc(F)c(Cl)c1)c1ccc(CO)c(F)c1` (centres unmarked) [A42, N-[[2-(3-Chloro-4-fluoro-phenyl)-5-(trifluoromethyl)-2H-pyrazol-3-yl]-methyl]-2-[3-fluoro-4-(hydroxymethyl)-phenyl]-propionamide], the Ki was 3 nM. As to `Cc1cccc(-n2nc(C(F)(F)F)cc2CNC(=O)C(C)c2ccc(COCCO)c(F)c2)c1` (centres unmarked) [A123, 2-[3-Fluoro-4-(2-hydroxy-ethoxy-methyl)-phenyl]-N-[[2-(m-tolyl)-5-(trifluoromethyl)-2H-pyrazol-3-yl]-methyl]-propionamide], the Ki came out at 24 nM. In the case of `CCOc1cc(C)cc(-n2nc(C(F)(F)F)cc2CNC(=O)Nc2ccc(CO)c(F)c2)c1` [A93, 1-[[2-(3-Ethoxy-5-methyl-phenyl)-5-(trifluoromethyl)-2H-pyrazol-3-yl]-methyl]-3-[3-fluoro-4-(hydroxymethyl)-phenyl]-urea], the Ki was determined as 18 nM.
